Measured values: the NIST ThermoML archive (doi:10.1016/j.jct.2014.06.012)
Numbers after ± are expanded uncertainties.

Assay: molar heat capacity at constant pressure
Details: 101.33 kPa, Crystal 1

O=P([O-])([O-])[O-].[Cs+].[Mn+2] [cesium manganese(II) phosphate]
molar heat capacity at constant pressure [J/K/mol]
Details | Small sample (50 mg) DSC | Vacuum adiabatic calorimetry
240.73 K | – | 124.88 ± 0.75
243.23 K | – | 125.55 ± 0.75
245.29 K | – | 126.13 ± 0.83
247.36 K | – | 126.8 ± 0.83
250 K | – | 126.96 ± 0.83
250.13 K | – | 127.46 ± 0.83
252.55 K | – | 128.04 ± 0.83
255.37 K | – | 128.79 ± 0.83
258.11 K | – | 129.46 ± 0.83
260 K | – | 129.62 ± 0.83
260.99 K | – | 130.29 ± 0.83
263.88 K | – | 131.12 ± 0.83
266.76 K | – | 131.87 ± 0.83
269.64 K | – | 132.62 ± 0.83
270 K | – | 132.37 ± 0.83
272.52 K | – | 133.45 ± 0.83
275.39 K | – | 134.28 ± 0.83
278.26 K | – | 135.19 ± 0.83
280 K | – | 135.11 ± 0.83
281.34 K | – | 136.02 ± 0.83
283.99 K | – | 136.77 ± 0.83
286.86 K | – | 137.69 ± 0.83
289.06 K | – | 138.1 ± 0.83
290 K | – | 138.02 ± 0.83
291.64 K | – | 139.02 ± 0.83
295.04 K | – | 140.18 ± 0.91
297.8 K | – | 141.01 ± 0.91
298.15 K | – | 140.43 ± 0.91
300 K | – | 141.01 ± 0.91
300.2 K | – | 141.76 ± 0.91
302.7 K | – | 142.51 ± 0.91
305.33 K | – | 143.34 ± 0.91
308.4 K | – | 144.17 ± 0.91
310 K | – | 144.17 ± 0.91
310.94 K | – | 144.92 ± 0.91
314 K | – | 145.92 ± 0.91
317.6 K | – | 147 ± 0.91
320 K | – | 147.58 ± 0.91
320.46 K | – | 147.91 ± 0.91
323.3 K | – | 148.91 ± 0.91
326.66 K | – | 150.08 ± 0.91
329.3 K | – | 150.91 ± 0.91
330 K | – | 151.16 ± 0.91
330.7 K | 151.32 ± 7.5 | –
331.64 K | – | 151.57 ± 0.91
332.7 K | 152.15 ± 8.3 | –
333.9 K | 152.15 ± 8.3 | –
335.3 K | – | 152.49 ± 0.91
337 K | 152.99 ± 8.3 | –
338.7 K | – | 153.4 ± 0.91
340 K | 153.82 ± 8.3 | 154.9 ± 1
341.6 K | 153.82 ± 8.3 | –
343.13 K | – | 154.65 ± 1
345 K | 155.48 ± 8.3 | –
347.5 K | 155.48 ± 8.3 | –
350 K | 156.31 ± 8.3 | –
352.5 K | 157.14 ± 8.3 | –
355 K | 157.14 ± 8.3 | –
357.7 K | 157.97 ± 8.3 | –
360 K | 158.81 ± 8.3 | –
360.2 K | 157.97 ± 8.3 | –
362.5 K | 158.81 ± 8.3 | –
364.9 K | 158.81 ± 8.3 | –
367.5 K | 159.64 ± 8.3 | –
370 K | 160.47 ± 8.3 | –
372.5 K | 160.47 ± 8.3 | –
374.8 K | 161.3 ± 8.3 | –
377.3 K | 161.3 ± 8.3 | –
380 K | 162.13 ± 8.3 | –
382.2 K | 162.13 ± 8.3 | –
385 K | 162.96 ± 8.3 | –
387.5 K | 162.96 ± 8.3 | –
390 K | 163.8 ± 8.3 | –
392.5 K | 163.8 ± 8.3 | –
395 K | 164.63 ± 8.3 | –
397.5 K | 164.63 ± 8.3 | –
400 K | 164.63 ± 8.3 | –
400.3 K | 165.46 ± 8.3 | –
402.8 K | 165.46 ± 8.3 | –
405.3 K | 166.29 ± 8.3 | –
407.5 K | 166.29 ± 8.3 | –
409.5 K | 166.29 ± 8.3 | –
410 K | 166.29 ± 8.3 | –
412.6 K | 166.29 ± 8.3 | –
415 K | 167.12 ± 8.3 | –
417.5 K | 167.12 ± 8.3 | –
420 K | 167.12 ± 8.3 | –
422.5 K | 167.12 ± 8.3 | –
425 K | 167.95 ± 9.1 | –
